Laboratory results taken from patent publication US7993884B2, “Beta-xylosidase for conversion of plant cell wall carbohydrates to simple sugars” (The United States of America as represented by the …, priority 2006, dated 2011).
Where a chain is given by its changes, count along the chain named. Names and notes keep the numbering of the source. Values joined by “and” are separate entries in the source; they are usually repeats but may differ in a detail not shown here. Equal values may be shown once. Read-outs that look alike come from different tables or passages of the source.

B1: Selenomonas ruminantium GA192 β-D-xylosidase (SXA, parent SEQ ID NO: 2) variant E186A (Pseudoselenomonas ruminantium; E186A) (protein)
chain: MNIQNPVLKGFNPDPSIVRAGDDYYIATSTFEWFPGVQIHHSKDLVHWHLVAHPLSTTEFLDMKGNPDSGGIWAPDLSYADGKFWLIYTDVKVVDGMWKDCHNYLTTAEDIKGPWSKPILLNGAGFDASLFHDPSGKKYLVNMYWDQRVYHHNFYGIALQEYSVAEEKLIGKPEIIYKGTDIAYTAGPHLYYINDMYYLMTAEGGTTYQHSETIARSKTIHGPYEIQPDYPLLSAWKEVHNPLQKCGHASLVETQNGQWYLAHLTGRPLPAPAGFPSREREQHAFCPLGRETAIQKIEWQDGWPVVVGGQQGSLEVEAPDLPQQEWAPTYEERDDFDKDTLNINFQTLRIPFSEHLGSLTARPGFLRLYGRESLQSKFTQAHIARRWQSFNFDAGTSVEFSPNSFQQMAGLTCYYNTENWSSIHVTWNEEKGRIIDLVTADNGTFSMPLAGAEIPIPDEVKTVHFKVSVRGRIYQYAYSFDGETFHTLPIELPSWKLSDDYVRGGGFFTGAFVGINAIDITGTALPADFDYFTYKELD
B2: Selenomonas ruminantium GA192 β-D-xylosidase (SXA, parent SEQ ID NO: 2) variant H248A (Pseudoselenomonas ruminantium; H248A) (protein)
chain: B1 chain with A186E, H248A
B3: Selenomonas ruminantium GA192 β-D-xylosidase (SXA, parent SEQ ID NO: 2) variant D127A (Pseudoselenomonas ruminantium; D127A) (protein)
chain: B1 chain with D127A, A186E
B4: Selenomonas ruminantium GA192 β-D-xylosidase (SXA, parent SEQ ID NO: 2) variant D14A (Pseudoselenomonas ruminantium; D14A) (protein)
chain: B1 chain with D14A, A186E
B5: Selenomonas ruminantium GA192 β-D-xylosidase (SXA, parent SEQ ID NO: 2) variant R290A (Pseudoselenomonas ruminantium; R290A) (protein)
chain: B1 chain with A186E, R290A

Assays:
SXA [1] = biological target: T1, SXA (Selenomonas ruminantium, UniProt O52575); experiment: SXA-catalyzed hydrolysis of 4NP-glycoside substrates, initial rates (Methods A and B); format: biochemical; details: for Relative Rate: 5 mM 4NP glycoside, 100 mM succinate-NaOH, pH 5.3, 25° C., Method A, initial rate relative to 4NPX;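 as to all read-outs here: initial rates from 4-nitrophenol release, tracked by absorbance over roughly 0.3 min and converted using product-minus-substrate extinction differences, in 1 mL mixtures started by enzyme addition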
[2] = biological target: T2, Selenomonas ruminantium GA192 β-D-xylosidase (SXA), wild type, SEQ ID NO: 2 (Pseudoselenomonas ruminantium, UniProt O52575); experiment: Steady-state kinetics of SXA with 4NPX2, A2 and X2-X6 by HPLC (Example 1)
SXA [3] = biological target: T1, SXA; details: for Km: 100 mM succinate-NaOH, pH 5.3, 25° C. (Example 1)
[4] = biological target: T2, Selenomonas ruminantium GA192 β-D-xylosidase (SXA), wild type, SEQ ID NO: 2; experiment: Steady-state kinetics of SXA with X2-X6, improved quenching, HPLC (Example 3); details: for factor by which kcat is higher than that of the Bacillus pumilus enzyme: SXA pH 5.3 vs B. pumilus pH 7.15, 25° C
SXA [5] = biological target: T1, SXA; details: for Km / kcat: 100 mM succinate-NaOH, improved quench (Example 3); for Km / kcat / kcat lower than previous determination (Example 1) / kcat/Km lower than previous determination (Example 1): pH 5.3, 25° C.; for factor by which kcat of SXA is higher than that of the Bacillus pumilus enzyme: SXA pH 5.3, 25° C. vs B. pumilus pH 7.15, 25° C.
[6] = substrate: O=[N+]([O-])c1ccc(O[C@@H]2O[C@@H](CO)[C@H](O)[C@H]2O)cc1; experiment: purified protein, by the assay type; details: other: 100 mM succinate-NaOH, pH 5.3, 25° C, Method A
[7] = substrate: O=[N+]([O-])c1ccc(O[C@@H]2OC[C@@H](O)[C@H](O)[C@H]2O)cc1; experiment: purified protein, by the assay type; details: other: 100 mM succinate-NaOH, pH 5.3, 25° C, Method A
[8] = 100 mM succinate-NaOH, pH 5.3, 25° C
[9] = pH 5.3, 25° C (improved technique), approximate
[10] = hydrolysis of X6, pH 5.30, 25° C.
[11] = pH 5.3, 25° C (Example 1), approximate

Row | Molecule | kcat [2, 8] | Km (SXA [3]) [µM] | kcat [4, 8] [s⁻¹] | factor by which kcat is higher than that of the Bacillus pumilus enzyme [4] | kcat [4, 9] | Km (SXA [5]) [µM] | kcat (SXA [5]) | factor by which kcat of SXA is higher than that of the Bacillus pumilus enzyme (SXA [5]) | kcat lower than previous determination (Example 1) (SXA [5]) [%] | kcat/Km lower than previous determination (Example 1) (SXA [5]) [%] | Km [7] [µM] | further results
1 | O=[N+]([O-])c1ccc(O[C@H]2OC[C@H](O)[C@H](O)[C@H]2O)cc1 [4-Nitrophenyl-β-L-arabinopyranoside] |  |  |  |  |  |  |  |  |  |  |  | Relative Rate (SXA [1]): <10^−6; rate relative to that of 4NPX, first inspection (SXA [1]; reaction conditions of Table 2, later attributed to a contaminant): less than 0.1%
2 | C[C@@H]1O[C@H](Oc2ccc([N+](=O)[O-])cc2)[C@@H](O)[C@H](O)[C@@H]1O [4-Nitrophenyl-β-fucopyranoside] |  |  |  |  |  |  |  |  |  |  |  | Relative Rate (SXA [1]): <10^−6
3 | OC[C@@H]1O[C@@H](OC[C@@H]2OC(O)[C@H](O)[C@H]2O)[C@H](O)[C@H]1O (stereo partly drawn) [A2, 1,5-α-L-arabinobiose] | 0.074 ± 0.003 s⁻¹ | 1200 ± 100 |  |  |  |  |  |  |  |  |  | factor by which kcat is reduced vs X2 [2]: 5600 fold; kcat factor between 4NPA and A2 ([2]; 4NPA larger / A2 reduced): 36 fold; relative kcat value ([2]; pH 5.3, 25° C, A2 = 1): 1; factor by which kcat is reduced in comparison to 4NPA (SXA [3]; pH 5.3, 25° C.): 36; factor by which kcat is reduced in comparison to X2 (SXA [3]; pH 5.3, 25° C.): 5600; relative kcat values (SXA [3]; pH 5.3 and 25° C., relative to A2): 1
4 | OC1OC[C@@H](O[C@@H]2OC[C@@H](O[C@@H]3OC[C@@H](O)[C@H](O)[C@H]3O)[C@H](O)[C@H]2O)[C@H](O)[C@H]1O (stereo partly drawn) [X3, 1,4-β-D-xylotriose] | 172 s⁻¹ and 172 ± 14 s⁻¹ | 3800 | 95.1 ± 1.5 | 32 | approximately 95.1 sec^−1 | 2120 ± 100 | approximately 95.1 s^−1 | 32 | 45 | 1 |  | affinity of dianionic SXA (D14^−E186^−), lower than that of monoanionic SXA (D14^−E186^H) ([4]; from pH dependence of 1/Km): 3.1 fold and 3 fold; pH-independent kcat ([4]; pH profile, I=0.3 M, 25° C): 98.0±2.3; pH-independent kcat (SXA [5]): 98.0±2.3; pKa1 of kcat versus pH (SXA [5]; Eq. 6, I=0.3 M, 25° C.): 3.21; pKa1 of kcat/Km versus pH (SXA [5]; Eq. 6, I=0.3 M, 25° C.): 4.80±0.06; pKa2 of kcat versus pH (SXA [5]; Eq. 6, I=0.3 M, 25° C.): 7.53±0.06; pKa2 of kcat/Km versus pH (SXA [5]; Eq. 6, I=0.3 M, 25° C.): 7.30±0.04; pKa1 of kcat versus pH (SXA [5]; Eq. 6, I=0.3 M, 25° C., listed as 1,4-β-D-xylotriose): 3.21±0.27; pKa1 of 1/Km versus pH (SXA [5]; Eq. 7, I=0.3 M, 25° C.): 4.76±0.05; pKa2 of 1/Km versus pH (SXA [5]; Eq. 7, I=0.3 M, 25° C.): 7.76±0.14; lower affinity of dianionic SXA (D14^−E186^−) than monoanionic SXA (D14^−E186^H) (SXA [5]; from pH dependencies of 1/Km): 3.1 fold and 3 fold; pH-independent kcat/Km (SXA [5]; kcat/Km versus pH, Eq. 6, I=0.3 M, 25° C. (FIG. 20)): 58.9±3.3 mM^−1s^−1; time of peak height of intermediate product, observed (SXA [3]; hydrolysis of X4, pH 5.30, 25° C.): 4130 s; time of peak height of intermediate product, observed (SXA [3]; [10]): 10822 s
5 | OC1OC[C@@H](O[C@@H]2OC[C@@H](O[C@@H]3OC[C@@H](O[C@@H]4OC[C@@H](O)[C@H](O)[C@H]4O)[C@H](O)[C@H]3O)[C@H](O)[C@H]2O)[C@H](O)[C@H]1O (stereo partly drawn) [X4, 1,4-β-D-xylotetraose] | 150 s⁻¹ and 150 ± 5 s⁻¹ | 4000 | 91.6 ± 2.3 | 31 | approximately 91.6 sec^−1 | 2750 ± 230 | approximately 91.6 s^−1 | 31 | 39 | 12 |  | kcat [2, 11]: approximately 150 sec^−1; time of peak height of intermediate product, observed (SXA [3]; [10]): 8260 s
6 | OC1OC[C@@H](O[C@@H]2OC[C@@H](O[C@@H]3OC[C@@H](O[C@@H]4OC[C@@H](O[C@@H]5OC[C@@H](O)[C@H](O)[C@H]5O)[C@H](O)[C@H]4O)[C@H](O)[C@H]3O)[C@H](O)[C@H]2O)[C@H](O)[C@H]1O (stereo partly drawn) [X5, 1,4-β-D-xylopentaose] | 150 s⁻¹ and 150 ± 15 s⁻¹ | 3700 | 77.2 ± 3.6 | 20 | approximately 77.2 sec^−1 | 2860 ± 380 | approximately 77.2 s^−1 | 20 | 49 | 34 |  | kcat [2, 11]: approximately 150 sec^−1; time of peak height of intermediate product, observed (SXA [3]; [10]): 3138 s
7 | OC1OC[C@@H](O[C@@H]2OC[C@@H](O[C@@H]3OC[C@@H](O[C@@H]4OC[C@@H](O[C@@H]5OC[C@@H](O[C@@H]6OC[C@@H](O)[C@H](O)[C@H]6O)[C@H](O)[C@H]5O)[C@H](O)[C@H]4O)[C@H](O)[C@H]3O)[C@H](O)[C@H]2O)[C@H](O)[C@H]1O (stereo partly drawn) [X6, 1,4-β-D-xylohexaose] | 96 s⁻¹ and 96 ± 7 s⁻¹ | 2700 | 81.5 ± 2.0 | 27 | approximately 81.5 sec^−1 | 3120 ± 210 | approximately 81.5 s^−1 | 27 | 15 | 25 |  | 
8 | B1 |  |  |  |  |  |  |  |  |  |  | 1100 ± 50 | Km [6]: 1320 ± 110 µM
9 | B2 |  |  |  |  |  |  |  |  |  |  | 1050 ± 70 | 
10 | B3 |  |  |  |  |  |  |  |  |  |  | 881 ± 59 | 
11 | B4 |  |  |  |  |  |  |  |  |  |  | 777 ± 36 | Km [6]: 771 ± 29 µM
12 | B5 |  |  |  |  |  |  |  |  |  |  |  | Km ([7]; not well determined (highest 4NPX 5 mM)): 50300 ± 8800 µM
